For assay [1], the system named is m^6A methyltransferase complex in HCT-116 cells. Put plainly: Immunoblot of m^6A methyltransferase complex in HCT-116 cell lysates. Type of assay: cell-based. As to conditions: 8 h, 10 μM PD0325901 or 0.1 μM trametinib. The procedure:
FIGS. 14A-14I: Phosphorylation of the m^6A Methyltransferase Complex May Affect Tumorigenesis. (A) Oncogenes (promote cancer), tumor suppressors (inhibit carcinogenesis), and drivers (important in cancer development, either oncogene or tumor suppressor) were used as classifiers by Cancermine database to identify the potential role of METTL3 from the published literature. (B) LC-MS/MS quantification of the m^6A/A ratio in mRNA of melanoma cell lines. (C) After 8 h treatment with 10 μM PD0325901 or 0.1 μM tramentib, cell lysates from HCT-116 cells were analyzed by immunoblot. (D) Kaplan-Meier analysis of overall survival time based on METTL3 expression from the skin cutaneous melanoma (SKCM) dataset at The Cancer Genome Atlas (TCGA). […] The ubiquitination of METTL3 was detected by IP with anti-METTL3 and immunoblot with anti-HA. (F) After 8 hr treatment with 10 μM EOAI3402143 (EOAI) or 30 μM vialinin A, cell lysates from HCT-116 cells were analyzed by immunoblot. […] (I) LC-MS/MS quantification of the m^6A/A ratio in mRNA of breast cancer cell lines.
(§1) Immunoprecipitation, immunoblotting, and in vitro kinase assay. […] Primary antibodies were detected by HRP-linked secondary antibodies (Cell Signaling) together with SuperSignal West Pico Plus chemiluminescent substrate (Thermo Scientific) and imaged in a FluorChem R system (ProteinSimple).

For assay [2], the system named is mRNA m^6A in A375 cells. Put plainly: LC-MS/MS quantification of the m^6A/A ratio in mRNA of A375 cells. Particulars: A375 melanoma cells, 48 h, 10 μM PD0325901 or 0.1 μM trametinib. Type of assay: cell-based, human. The method, then: FIGS. 6A-6H: Phosphorylation of the m^6A Methyltransferase Complex May Affect Tumorigenesis. (A) Lysates of A375 stable transfectants harvested at different time points after treatment with cycloheximide (CHX) 10 μg/ml were analyzed by immunoblot. (B) LC-MS/MS quantification of the m^6A/A ratio in mRNA of A375 stable transfectants. (C) After 8 h treatment with 10 μM PD0325901 or 0.1 μM tramentib, cell lysates from A375 cells were analyzed by immunoblot. (D) LC-MS/MS quantification of the m^6A/A ratio in mRNA of A375 cells treated with 10 μM PD0325901 or 0.1 μM tramentib for 48 h. (E) After 8hr treatment with 10 μM EOAI3402143 (EOAI) or 30 μM vialinin A , cell lysates from A375 cells were analyzed by immunoblot. […] (H) LC-MS/MS quantification of the m^6A/A ratio in mRNA of SKBR3 and BT474 cells treated with 1 μM tucatinib and 1 μM lapatinib for 48 h. […]
LC-MS/MS quantification of m^6A in poly(A) RNA. mRNA was extracted from the total RNA using 2 rounds of the Dynabeads mRNA purification kit. […] The nucleosides were quantified by using the nucleoside-to-base ion mass transitions of 282 to 150 (m^6A) and 268 to 136 (A). Quantification was carried out by comparison with a standard curve obtained from pure nucleoside. The ratio of m^6A to A was calculated based on the calibrated concentrations (Liu et al., 2018).

The test system of assay [3] is ubiquitination of METTL3. The assay is described as follows: Ubiquitination of METTL3 in A375 cells transfected with HA-ubiquitin (IP anti-METTL3, immunoblot anti-HA). Type of assay: cell-based, human. As to conditions: 10 μM MG-132 and PD0325901 for 8 h. The procedure: FIGS. 11A-11G: USP5 is Required for ERK-Mediated METTL3 Stabilization. (A) A375 cells transfected with HA-ubiquitin (ub) were treated with 10 μM MG-132 and MEK inhibitor PD0325901 for 8 h. The ubiquitination of METTL3 was detected by IP with anti-METTL3 and immunoblot with anti-HA. (B) After 8 h treatment with 10 μM PD0325901 with or without 10 μM MG-132, cell lysates from A375 cells were analyzed by immunoblot. (C) A375 cells were treated with various concentrations of PD0325901 for 1 h. Cell lysates were subjected to IP with METTL3 antibody followed by immunoblot. (D) 293T cells transfected as indicated were subjected to IP/immunoblot analysis. (E) Immunofluorescence analysis of myc-METTL3 (green) in mESC stable transfectants. DAPI (blue) was used to mark the nucleus. (F) Lysates of 293T cells transfected as indicated were subjected to IP with anti-Flag antibody followed by immunoblot. (G) Immunofluorescence analysis of 293T cells co-transfected with myc-METTL3 (green), Flag-USP5 (red) with or without constitutively active B-RAF.
FIGS. 14A-14I: Phosphorylation of the m^6A Methyltransferase Complex May Affect Tumorigenesis. […] (B) LC-MS/MS quantification of the m^6A/A ratio in mRNA of melanoma cell lines. (C) After 8 h treatment with 10 μM PD0325901 or 0.1 μM tramentib, cell lysates from HCT-116 cells were analyzed by immunoblot. […] The ubiquitination of METTL3 was detected by IP with anti-METTL3 and immunoblot with anti-HA. (F) After 8 hr treatment with 10 μM EOAI3402143 (EOAI) or 30 μM vialinin A, cell lysates from HCT-116 cells were analyzed by immunoblot. […] (I) LC-MS/MS quantification of the m^6A/A ratio in mRNA of breast cancer cell lines.
as §1
Background: In western blotting, separated proteins are transferred to a membrane and probed.

As to `O=C(NOC[C@H](O)CO)c1ccc(F)c(F)c1Nc1ccc(I)cc1F` [PD0325901], the “m^6A methyltransferase complex level” value in assay [1] is recorded as “decreased”. The “overall mRNA m^6A levels (m^6A/A ratio)” value in assay [2] was “reduce”. The “ubiquitination of METTL3” value in assay [3] is “increased”.

The values above are taken from patent US20230123585A1, “COMPOSITIONS AND METHODS FOR TREATING OR PREVENTING CANCER USING DEUBIQUITINASE INHIBITORS” (The University of Chicago, priority 2020, published 2023).
